# Earlier results in patent US8871712B2, “Somatostatin analogue formulations” (Camurus AB, priority 2005, dated 2014).
# Conditions: in vivo
structure (smiles),measurement,value
"C[C@@H](O)[C@@H]1NC(=O)[C@H](CCCCN)NC(=O)[C@@H](Cc2c[nH]c3ccccc23)NC(=O)[C@H](Cc2ccccc2)NC(=O)[C@@H](NC(=O)[C@H](N)Cc2ccccc2)CSSC[C@@H](C(=O)N[C@H](CO)[C@@H](C)O)NC1=O [Octreotide, D-Phe-Cys-Phe-D-Trp-Lys-Thr-Cys-Thr-ol (2-7 disulphide bridge)]",Terminal half-life,around 1.7 hours
